Assay results taken from patent US20100286247A1, “Methods of Protection from Oxidative Stress” (Trustees of Boston University, priority 2005, published 2010).
{P} = phosphate

Legend:
[1] = system: SOD2 mRNA; experiment: Northern blot analysis of antioxidant enzyme mRNA: SOD2; assay type: cell-based, human; conditions: 100 μM pTT, 8-72 hours, three donors
Experimental: (§1) Cell culture followed previously published methods.^92 Primary human newborn dermal fibroblasts were cultured from neonatal circumcised foreskin specimens. The skin samples were treated overnight in a 0.25% trypsin solution at 4° C. to separate the epidermis from the dermis. The separated dermis was then cut into pieces and plated onto etched plastic tissue culture dishes. Primary culture medium consisted of DMEM supplemented with 10% bovine CS, 50 U/ml penicillin and 50 μg/ml streptomycin sulfate. […] Secondary culture medium consisted of DMEM supplemented with 10% CS.
(§2) Purified 5′-phosphorylated thymidine dinucleotides (pTT) (Midland Certified Reagents, Inc., Texas) purified by gel filtration and analyzed by mass spectroscopy, were obtained in lyophilized form. […] The stock solution was syringe filter-sterilized through a 0.2 μm pore filter and spectrophotometrically analyzed (absorbance at 260 and 280 nm) to determine the concentration, and frozen in aliquots at −20° C. […]
(§3) Cells were harvested in Trizol (Gibco BRL, Gaithersburg, Md.) and stored at −70° C. […] RNA solutions were measured by spectrophotometer readings at 260 nm and 280 nm to determine concentration and purity. […]
(§4) Northern and western films as well as stained membranes and pictures of ethidium bromide-stained gels were digitally scanned and analyzed by densitometry. […]

[2] = system: S91 melanoma cells, cultured melanocytes, guinea pig skin; conditions: solutions of pTT; cited from earlier work
[3] = 100 μM pTT, in vitro and in mouse models in vivo; cited from earlier work
[4] = system: CAT mRNA; experiment: Northern blot analysis of antioxidant enzyme mRNA: CAT; assay type: cell-based, human; conditions: 100 μM pTT, 8-72 hours
Experimental: as §1, §2, §3, §4

[5] = system: melanoma tumors; conditions: SCID mouse model; cited from earlier work
[6] = system: total p53 protein; conditions: 40 μM, published reports; cited from earlier work
[7] = system: phospho-p53 (Ser-15); experiment: Western blot of activated p53 (serine-15 phosphorylation); assay type: cell-based, human; conditions: by 36-48 hours, sustained through 72 hours; 40 μM TO, 100 μM pTT
Experimental: Western blot analysis of proteins from cells treated and harvested in parallel with DCF time course studies was conducted as described above. Membranes were reacted with antibodies to total p53/DO-1 (1:1000 dilution, Oncogene Research Products, Cambridge, Mass.), anti-phoso-p53 (Ser-15) (1:1000 dilution, Cell Signaling Technology, Beverly, Mass.), and p21/Cip1/Waf1 (1:500 dilution, Transduction Laboratories, Lexington, Ky.), followed by appropriate secondary antibodies diluted 1:2000.

[8] = system: human dermal fibroblasts; conditions: treatment for 7 days, Li et al.; cited from earlier work

Row | Substance | SOD2 mRNA level compared to diluent [1] | melanin production [2] | nucleotide excision DNA repair and UV resistance [3] | CAT mRNA level compared to diluent [4] | melanoma tumors [5] | time to p53 induction [6] | phospho-p53-ser15 response, TO vs pTT [7] | cells expressing senescence-associated-β-galactosidase after prolonged treatment [8]
1 | 5′-phosphorylated thymidine dinucleotides [pTT] | no difference between pTT- and diluent-treated cells | enhanced melanin production | stimulates enhanced nucleotide excision DNA repair and resistance to subsequent UV irradiation | remain unchanged |  |  |  | 
2 | pGTTAGGGTTAG (5' {P}, sugars by position and backbone not given here) [TO] |  |  |  |  | reduced melanoma tumors | ≤ 8 h | greater than to pTT | over 60%
